{"source": "patent US10324099B2", "about": "“Ultrasensitive androgen receptor bioassay” (The Regents of the University of California, priority 2014, dated 2019)", "test_system": "mutant AR-YFP", "assay": "YFP fluorescence in reporter cell nuclei at saturating target hormone", "assay_type": "cell-based", "settings": "absence of urine", "description": "For example, YFP fluorescence measured in the cell nuclei of urine-treated reporter cells represents both the effects of target hormone-bound nuclear-translocated mutant AR-YFP, and also the independent effects of urine on the fluorescence properties of YFP. […] Because the effect varies among samples, two aliquots of each sample are required. […] A second sample aliquot is assayed using the methods of the invention. The correction factor is used to subtract the percentage increase from the YFP fluorescence signal measurement of the second aliquot. The corrected YFP fluorescence of the sample then is used to extrapolate the target hormone levels from a standard curve."}
{"smiles": "C[C@]12CC[C@H]3[C@@H](CCC4=CC(=O)CC[C@@]43C)[C@@H]1CC[C@@H]2O", "note": "[testosterone]", "values": [{"measurement": "saturating level (YFP fluorescence in nuclei reaches a maximum)", "value": "about 10^−7 M"}]}
